From US12122761B2, “2-azaspiro[3.4]octane derivatives as M4 agonists” (NOVARTIS AG, priority 2019, dated 2024) come the findings set out here.

The target of assay [1] is T1, Cloned human M1 receptor (CHRM1) stably expressed in HEK293 cells (Homo sapiens, UniProt P11229).
T1 construct: expressed in transfected cells; host or cells: HEK293
T1 sequence (P11229 1-460): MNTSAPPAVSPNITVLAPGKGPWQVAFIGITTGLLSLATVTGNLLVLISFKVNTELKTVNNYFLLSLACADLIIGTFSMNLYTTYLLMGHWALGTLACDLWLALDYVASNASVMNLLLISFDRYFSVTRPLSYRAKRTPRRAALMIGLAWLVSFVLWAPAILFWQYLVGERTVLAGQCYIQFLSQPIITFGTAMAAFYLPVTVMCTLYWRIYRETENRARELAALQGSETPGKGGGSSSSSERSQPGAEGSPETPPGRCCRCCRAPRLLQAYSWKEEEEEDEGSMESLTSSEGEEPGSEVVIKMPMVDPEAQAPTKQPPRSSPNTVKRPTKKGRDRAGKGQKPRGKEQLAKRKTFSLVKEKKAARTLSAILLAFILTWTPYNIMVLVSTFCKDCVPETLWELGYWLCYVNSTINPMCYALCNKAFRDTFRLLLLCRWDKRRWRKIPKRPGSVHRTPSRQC
Description: CHRM1 Ca++ Flux Assay (agonist mode, FDSS 7000EX). The class given is cell-based. The note with it: for M1 FDSS PA: Percent Activity; for EC50: geometric mean if tested more than once; for Emax: HEK293, Percent Activity, read-out: M1 FDSS PA. In a few lines:
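Compounds tested as agonists at 11 concentrations in triplicate, with calcium traces captured over 3 minutes. Cells were HEK293 with stable human CHRM1 expression, plated overnight at 25K/well and loaded with calcium dye. Responses normalized to carbachol EC100 and fitted by four-parameter nonlinear regression.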

Assay [2] deals with T2, human cloned CHRM5 receptor (M5_CHO) (Homo sapiens, UniProt P08912).
T2 construct: expressed in transfected cells; host or cells: CHO (M5_CHO)
T2 sequence (P08912 1-532): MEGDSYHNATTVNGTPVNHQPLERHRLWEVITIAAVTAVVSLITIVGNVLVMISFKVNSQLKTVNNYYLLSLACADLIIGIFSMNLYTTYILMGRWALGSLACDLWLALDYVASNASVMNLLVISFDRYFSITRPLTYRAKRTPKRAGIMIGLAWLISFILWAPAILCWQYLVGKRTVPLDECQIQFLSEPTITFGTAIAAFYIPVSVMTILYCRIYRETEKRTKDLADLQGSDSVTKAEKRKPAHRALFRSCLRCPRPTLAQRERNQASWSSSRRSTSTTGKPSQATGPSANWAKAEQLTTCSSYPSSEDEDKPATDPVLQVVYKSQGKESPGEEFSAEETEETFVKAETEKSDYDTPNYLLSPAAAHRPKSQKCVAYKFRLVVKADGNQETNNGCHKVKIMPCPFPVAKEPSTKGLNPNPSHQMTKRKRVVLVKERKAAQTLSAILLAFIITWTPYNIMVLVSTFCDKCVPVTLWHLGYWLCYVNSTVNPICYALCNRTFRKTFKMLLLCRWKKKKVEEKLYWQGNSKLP
Description: CHRM5 Ca++ Flux Assay (agonist mode, FDSS 7000EX). It counts as cell-based. The note with it: for M5 FDSS PA / Emax: Percent Activity measured to EC100 of Carbachol; for EC50: agonist mode, geometric mean if tested more than once, read-out: M5 FDSS EC50; for Emax: read-out: M5 FDSS PA. The method in brief:
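Agonist-mode calcium flux: 11-point dose responses, triplicate wells, fluorescence followed for 3 minutes. Cells are M3_CHO or M5_CHO lines (human receptors) with Ca++ indicator in probenecid-containing HEPES/HBSS buffer. Percent activity is referenced to carbachol EC100, and curves come from four-parameter nonlinear regression.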

A value given as a limit tells only on which side of the number the result lay.

Turning to `COC(C)(C)CCOc1ccccc1C1CCN([C@@H]2CCC3(C2)CN(C(=O)C2(F)CC2)C3)CC1` (single isomer, unassigned) [Example 7FF, (R)-(1-fluorocyclopropyl)(6-(4-(2-(3-methoxy-3-methylbutoxy)phenyl)piperidin-1-yl)-2-azaspiro[3.4]octan-2-yl)methanone or (S)-(1-fluorocyclopropyl)(6-(4-(2-(3-methoxy-3-methylbutoxy)phenyl)piperidin-1-yl)-2-azaspiro[3.4]octan-2-yl)methanone], in assay [1], the “M1 FDSS PA” value turned out to be 7% and the 50% effective concentration (EC50) stood at 0.182 µM. Also, in assay [2], the “M5 FDSS PA” value was found to be 0% and the concentration giving a half-maximal response (EC50) is above 25 µM.
As for `Cc1ccc(N2CC3(CC[C@@H](N4CCC(c5ccccc5O[C@@H]5CCOC5)CC4)C3)C2)cn1` [Example 5L, (R)-2-(6-methylpyridin-3-yl)-6-(4-(2-(((R)-tetrahydrofuran-3-yl)oxy)phenyl)piperidin-1-yl)-2-azaspiro[3.4]octane], in assay [1], the Emax was found to be 0% and the concentration for a half-maximal effect (EC50) was above 25 µM. For the same compound, in assay [2], the Emax turned out to be 17% and the EC50 was 14.4 µM.
For the compound `FC(F)(F)Oc1ccccc1C1CCN([C@@H]2CCC3(C2)CN(c2ncco2)C3)CC1` (single isomer, unassigned) [Example 10K, (R)-2-(6-(4-(2-(trifluoromethoxy)phenyl)piperidin-1-yl)-2-azaspiro[3.4]octan-2-yl)oxazole or (S)-2-(6-(4-(2-(trifluoromethoxy)phenyl)piperidin-1-yl)-2-azaspiro[3.4]octan-2-yl)oxazole], in assay [1], the “M1 FDSS PA” value is 65% and the concentration giving a half-maximal response (EC50) turned out to be 0.094 µM. Besides, in assay [2], the “M5 FDSS PA” value is reported as 0% and the EC50 is above 25 µM.
Take `Cc1ncncc1N1CC2(CC[C@@H](N3CCC(c4ccccc4OCC(C)(C)O)CC3)C2)C1` [Example 5C, (R)-2-methyl-1-(2-(1-(2-(4-methylpyrimidin-5-yl)-2-azaspiro[3.4]octan-6-yl)piperidin-4-yl)phenoxy)propan-2-ol]: in assay [1], the Emax was determined as 69% and the half-maximal effective concentration (EC50) amounted to 0.42 µM. Besides, in assay [2], the Emax was found to be 0% and the EC50 is above 25 µM.
Consider `COc1ccccc1C1CCN([C@@H]2CCC3(C2)CN(c2cnc(C)nc2)C3)CC1` [Example 5E, (R)-6-(4-(2-methoxyphenyl)piperidin-1-yl)-2-(2-methylpyrimidin-5-yl)-2-azaspiro[3.4]octane], for which, in assay [1], the Emax is 0% and the EC50 was above 25 µM. In assay [2], the Emax was 0% and the EC50 is above 25 µM.
Take `O=C(N1CC2(CC[C@@H](N3CCC(c4ccccc4C4(O)CCOCC4)CC3)C2)C1)C1(F)CC1` (single isomer, unassigned) [Example 9G, (R)-(1-fluorocyclopropyl)(6-(4-(2-(4-hydroxytetrahydro-2H-pyran-4-yl)phenyl)piperidin-1-yl)-2-azaspiro[3.4]octan-2-yl)methanone or (S)-(1-fluorocyclopropyl)(6-(4-(2-(4-hydroxytetrahydro-2H-pyran-4-yl)phenyl)piperidin-1-yl)-2-azaspiro[3.4]octan-2-yl)methanone]: in assay [1], the “M1 FDSS PA” value was 16% and the EC50 was determined as 0.301 µM. For the same compound, in assay [2], the “M5 FDSS PA” value was 0% and the half-maximal effective concentration (EC50) is above 25 µM.
The matching figures for `FC(F)(F)Oc1ccccc1C1CCN([C@@H]2CCC3(C2)CN(c2ncco2)C3)CC1` (single isomer, unassigned) [Example 10L, (R)-2-(6-(4-(2-(trifluoromethoxy)phenyl)piperidin-1-yl)-2-azaspiro[3.4]octan-2-yl)oxazole or (S)-2-(6-(4-(2-(trifluoromethoxy)phenyl)piperidin-1-yl)-2-azaspiro[3.4]octan-2-yl)oxazole]: 50%, 0.736 µM, 2% and above 25 µM.
The like results for `COc1ccccc1C1CCN([C@H]2CCC3(C2)CN(c2ncco2)C3)CC1` (single isomer, unassigned) [Example 10I, S)-2-(6-(4-(2-methoxyphenyl)piperidin-1-yl)-2-azaspiro[3.4]octan-2-yl)oxazole or (R)-2-(6-(4-(2-methoxyphenyl)piperidin-1-yl)-2-azaspiro[3.4]octan-2-yl)oxazole] were, in that order, 0%, above 25 µM, 0% and above 25 µM.
For the compound `Cc1coc(N2CC3(CC[C@@H](N4CCC(c5ccc(F)cc5OCC(C)(C)O)CC4)C3)C2)n1` [Example 3N, (R)-1-(5-fluoro-2-(1-(2-(4-methyloxazol-2-yl)-2-azaspiro[3.4]octan-6-yl)piperidin-4-yl)phenoxy)-2-methylpropan-2-ol], in assay [1], the Emax turned out to be 0% and the 50% effective concentration (EC50) was above 25 µM. In addition, in assay [2], the Emax amounted to 0% and the EC50 is above 25 µM.
For `O=C(N1CC2(CC[C@@H](N3CCC(c4ccccc4OCC4CC4)CC3)C2)C1)C1(F)CC1` (single isomer, unassigned) [Example 7O, (R)-(6-(4-(2-(cyclopropylmethoxy)phenyl)piperidin-1-yl)-2-azaspiro[3.4]octan-2-yl)(1-fluorocyclopropyl)methanone or (R)-(6-(4-(2-(cyclopropylmethoxy)phenyl)piperidin-1-yl)-2-azaspiro[3.4]octan-2-yl)(1-fluorocyclopropyl)methanone], in assay [1], the “M1 FDSS PA” value is 57% and the midpoint of the response, the EC50, lay at 0.037 µM. In addition, in assay [2], the “M5 FDSS PA” value came out at 0% and the EC50 was above 25 µM.
As to `COc1ccccc1C1CCN([C@@H]2CCC3(C2)CN(c2cncc(C)n2)C3)CC1` [Example 5G, (R)-6-(4-(2-methoxyphenyl)piperidin-1-yl)-2-(6-methylpyrazin-2-yl)-2-azaspiro[3.4]octane], the Emax in assay [1] and in assay [2] was 0% throughout. The concentration for a half-maximal effect (EC50) in assay [1] and in assay [2] was above 25 µM throughout.
With `O=C(N1CC2(CC[C@@H](N3CCC(c4ccccc4OC4CCOCC4)CC3)C2)C1)C1(F)CC1` (single isomer, unassigned) [Example 9F, (R)-(1-fluorocyclopropyl)(6-(4-(2-((tetrahydro-2H-pyran-4-yl)oxy)phenyl)piperidin-1-yl)-2-azaspiro[3.4]octan-2-yl)methanone or (S)-(1-fluorocyclopropyl)(6-(4-(2-((tetrahydro-2H-pyran-4-yl)oxy)phenyl)piperidin-1-yl)-2-azaspiro[3.4]octan-2-yl)methanone], in assay [1], the “M1 FDSS PA” value worked out at 0% and the EC50 was above 25 µM. Moreover, in assay [2], the “M5 FDSS PA” value was 0% and the EC50 was above 25 µM.
For `COc1ccccc1C1CCN([C@@H]2CCC3(C2)CN(c2cc(Cl)nnc2Cl)C3)CC1` [Example 5R, (R)-2-(3,6-dichloropyridazin-4-yl)-6-(4-(2-methoxyphenyl)piperidin-1-yl)-2-azaspiro[3.4]octane], in assay [1], the Emax came out at 41% and it took 2.03 µM to reach a half-maximal effect (EC50). In assay [2], the Emax was 1% and the EC50 was above 25 µM.
On to `Fc1ccc(OC2CC3(COC3)C2)c(C2CCN([C@@H]3CCC4(C3)CN(c3cncnc3)C4)CC2)c1` (single isomer, unassigned) [Example 10E, (R)-6-(4-(2-((2-oxaspiro[3.3]heptan-6-yl)oxy)-5-fluorophenyl)piperidin-1-yl)-2-(pyrimidin-5-yl)-2-azaspiro[3.4]octane or (S)-6-(4-(2-((2-oxaspiro[3.3]heptan-6-yl)oxy)-5-fluorophenyl)piperidin-1-yl)-2-(pyrimidin-5-yl)-2-azaspiro[3.4]octane], for which, in assay [1], the “M1 FDSS PA” value is 4% and the concentration for a half-maximal effect (EC50) came to 3.99 µM. For the same compound, in assay [2], the “M5 FDSS PA” value turned out to be 0% and the EC50 is above 25 µM.

One may read the EC50 as the concentration giving half of the maximal effect.
